Results published in US20110044938A1 (NYCOMED GMBH, priority 2006, published 2011).

Key:
[1] = system: RKO (RKOp27) human colon adenocarcinoma cells; assay: Alamar Blue cell viability assay, anti-proliferative/cytotoxic activity on proliferating RKO subclones; assay type: cell-based; conditions: RKOp27, 72 h, RKO p27 uninduced (proliferating) cells, value = class bound given in Table A, read-out: −logIC50 RKO p27 uninduced (proliferating) (converted)
Description: The anti-proliferative/cytotoxic activity of the compounds described herein, can be tested on subclones of RKO (RKOp27) human colon adenocarcinoma cells (Schmidt et al., Oncogene 19, 2423-2429; 2000) using the Alamar Blue cell viability assay (described in O'Brien et al. Eur J Biochem 267, 5421-5426, 2000). The compounds are dissolved as 20 mM solutions in dimethylsulfoxide (DMSO) and subsequently diluted in semi-logarithmic steps. DMSO dilutions are further diluted 1:100 into Dulbecco's modified Eagle's medium (DMEM) containing 10% fetal calf serum to a final concentration twice as much as the final concentration in the test. RKO subclones are seeded into 96 well flat bottom plates at a density of 5000 cells per well in a volume of 50 μl per well. 24 hours after seeding the 50 μl each of the compound dilutions in DMEM medium are added into each well of the 96 Well plate. Each compound dilution is tested as quadruplicates. Wells containing untreated control cells are filled with 50 μl DMEM medium containing 1% DMSO. The cells are then incubated with the substances for 72 hours at 37° C. in a hunified atmosphere containing 5% carbon dioxide. To determine the viability of the cells, 10 μl of an Alamar Blue solution (Biosource) are added and the fluorescence is measured at an extinction of 544 nm and an emission of 590 nm. For the calculation of the cell viability the emission value from untreated cells is set as 100% viability and the emission rates of treated cells are set in relation to the values of untreated cells. Viabilities are expressed as % values.
The corresponding IC50 values of the compounds for anti-proliferative/cytotoxic activity are determined from the concentration-effect curves.
(§1) Representative −log IC50 [mol/l] values for anti-proliferation/cytotoxicity determined in the mentioned assays follow from the following table A, in which the numbers of the compound correspond to the numbers of the examples.

[2] = system: subclones of RKO colon adenocarcinoma cells (RKOp27 or RKOp21) arrested by Ponasterone A; assay: Alamar Blue cell viability assay, cell cycle specific mode of action: cells arrested by ectopic p27Kip1 induced by Ponasterone A versus proliferating cells; assay type: cell-based; conditions: Homo sapiens, RKO p27 induced (arrested) cells, 10 μM Ponasterone A, 72 hours, value = class bound given in Table A, read-out: −logIC50 RKO p27 induced (arrested) (converted)
Description: To determine the cell cycle specific mode of action, subclones of RKO colon adenocarcinoma cells (RKOp27 or RKOp21 as described by Schmidt et al. in Oncogene 19, 2423-2429; 2000) are seeded into 96 well flat bottom plates at a density of 15000 cells per well in a volume of 50 μl per well in DMEM growth medium with 10% FCS containing 10 μM Ponasterone A. 24 hours after seeding the 50 μl each of the compound dilutions in DMEM medium are added into each well of the 96 Well plate. Each compound dilution is tested as quadruplicates. Wells containing untreated control cells are filled with 50 μl DMEM medium containing 1% DMSO. The cells are then incubated with the substances for 72 hours at 37° C. in a humidified athmosphere containing 5% carbon dioxide. To determine the viability of the cells, 10 μl of an Alamar Blue solution (Biosource) are added and the fluorescence was measured at an extinction of 544 nm and an emission of 590 nm. For the calculation of the cell viability the emission value from untreated cells is set as 100% viability and the emission rates of treated cells are set in relation to the values of untreated cells. Viabilities are expressed as % values. Viability is compared of proliferating cells grown in the absence of the inducer Ponasterone A, versus viability of cells arrested by the expression of ectopic p27Kip1 induced by Ponasterone A.
as §1

| IC50 [2] | Compound | IC50 [1] |
| --- | --- | --- |
| ≥ 100000 nM | CCNC(=O)OC1CCc2c(sc(NC(=O)/C=C/c3cccnc3)c2C#N)C1 (stereo not shown) [Example 3, Ethyl-carbamic acid 3-cyano-2-((E)-3-pyridin-3-yl-allanoylamino)-4,5,6,7-tetrahydro-benzo[b]thiophen-6-yl ester] | ≤ 501 nM |
| ≥ 10000 nM | CCNC(=O)OC1CCc2c(sc(NC(=O)/C=C/c3ccccc3OCC)c2C#N)C1 (stereo not shown) [Example 5, Ethyl-carbamic acid 3-cyano-2-[(E)-3-(2-ethoxy-phenyl)-allanoylamino]-4,5,6,7-tetrahydro-benzo[b]thiophen-6-yl ester] | ≤ 501 nM |
| ≥ 100000 nM | CCOC(=O)OC1CCc2c(sc(NC(=O)/C=C/c3ccccc3OCC)c2C#N)C1 (stereo not shown) [Example 6, Carbonic acid 3-cyano-2-[(E)-3-(2-ethoxy-phenyl)-allanoylamino]-4,5,6,7-tetrahydro-benzo[b]thiophen-6-yl ester ethyl ester] | 501 to 2000 nM |
| ≥ 100000 nM | CCNC(=O)OCC1CCc2c(sc(NC(=O)/C=C/c3ccccc3OCC)c2C#N)C1 (stereo not shown) [Example 10, Ethyl-carbamic acid 3-cyano-2-[(E)-3-(2-ethoxy-phenyl)-allanoylamino]-4,5,6,7-tetrahydro-benzo[b]thiophen-6-ylmethyl ester] | ≤ 501 nM |
| ≥ 100000 nM | CCOc1ccccc1/C=C/C(=O)Nc1sc2c(c1C#N)CCC(OC(=O)OCCOC)C2 (stereo not shown) [Example 11, Carbonic acid 3-cyano-2-[(E)-3-(2-ethoxy-phenyl)-allanoylamino]-4,5,6,7-tetrahydro-benzo[b]thiophen-6-yl ester 2-methoxy-ethyl ester] | ≤ 501 nM |
| ≥ 50100 nM | CCOc1ccccc1/C=C/C(=O)Nc1sc2c(c1C#N)CCC(OC(=O)NCCOC)C2 (stereo not shown) [Example 12, (2-Methoxy-ethyl)-carbamic acid 3-cyano-2-[(E)-3-(2-ethoxy-phenyl)-allanoylamino]-4,5,6,7-tetrahydro-benzo[b]thiophen-6-yl ester] | ≤ 501 nM |
| ≥ 100000 nM | CCOc1ccccc1/C=C/C(=O)Nc1sc2c(c1C#N)CCC(OC(=O)OCCN1CCOCC1)C2 (stereo not shown) [Example 13, Carbonic acid 3-cyano-2-[(E)-3-(2-ethoxy-phenyl)-allanoylamino]-4,5,6,7-tetrahydro-benzo[b]thiophen-6-yl ester 2-morpholin-4-yl-ethyl ester] | 501 to 2000 nM |
| ≥ 50100 nM | CCOc1ccccc1/C=C/C(=O)Nc1sc2c(c1C#N)CCC(OC(=O)NCc1cccnc1)C2 (stereo not shown) [Example 14, Pyridin-3-ylmethyl-carbamic acid 3-cyano-2-[(E)-3-(2-ethoxy-phenyl)-allanoylamino]-4,5,6,7-tetrahydro-benzo[b]thiophen-6-yl ester] | 501 to 2000 nM |
| ≥ 100000 nM | CCOc1ccccc1/C=C/C(=O)Nc1sc2c(c1C#N)CCC(COC(=O)NCc1ccccn1)C2 (stereo not shown) [Example 15, Pyridin-2-ylmethyl-carbamic acid 3-cyano-2-[(E)-3-(2-ethoxy-phenyl)-allanoylamino]-4,5,6,7-tetrahydro-benzo[b]thiophen-6-ylmethyl ester] | 501 to 2000 nM |
| ≥ 100000 nM | COCCNC(=O)OC1CCc2c(sc(NC(=O)/C=C/c3cccnc3)c2C#N)C1 (stereo not shown) [Example 18, (2-Methoxy-ethyl)-carbamic acid 3-cyano-2-((E)-3-pyridin-3-yl-allanoylamino)-4,5,6,7-tetrahydro-benzo[b]thiophen-6-yl ester] | 501 to 2000 nM |
| ≥ 100000 nM | CNC(=O)OC1CCc2c(sc(NC(=O)/C=C/c3cccnc3)c2C#N)C1 (stereo not shown) [Example 20, Methyl-carbamic acid 3-cyano-2-((E)-3-pyridin-3-yl-allanoylamino)-4,5,6,7-tetrahydro-benzo[b]thiophen-6-yl ester] | ≤ 501 nM |

Further lines, the compound ahead of its results:

| Compound | IC50 [2] | IC50 [1] |
| --- | --- | --- |
| N#Cc1c(NC(=O)/C=C/c2cccnc2)sc2c1CCC(OC(=O)NCc1ccccc1)C2 (stereo not shown) [Example 2, Benzyl-carbamic acid 3-cyano-2-((E)-3-pyridin-3-yl-allanoylamino)-4,5,6,7-tetrahydro-benzo[b]thiophen-6-yl ester] | ≥ 10000 nM | 501 to 2000 nM |
| CCOC(=O)OC1CCc2c(sc(NC(=O)/C=C/c3cccnc3)c2C#N)C1 (stereo not shown) [Example 4, Carbonic acid 3-cyano-2-((E)-3-pyridin-3-yl-allanoylamino)-4,5,6,7-tetrahydro-benzo[b]thiophen-6-yl ester ethyl ester] | ≥ 100000 nM | ≤ 501 nM |
| N#Cc1c(NC(=O)/C=C/c2cccnc2)sc2c1CCC(COC(=O)NCc1ccccc1)C2 (stereo not shown) [Example 7, Benzyl-carbamic acid 3-cyano-2-((E)-3-pyridin-3-yl-allanoylamino)-4,5,6,7-tetrahydro-benzo[b]thiophen-6-ylmethyl ester] | ≥ 100000 nM | ≤ 501 nM |
| CCOC(=O)OCC1CCc2c(sc(NC(=O)/C=C/c3cccnc3)c2C#N)C1 (stereo not shown) [Example 8, Carbonic acid 3-cyano-2-((E)-3-pyridin-3-yl-allanoylamino)-4,5,6,7-tetrahydro-benzo[b]thiophen-6-ylmethyl ester ethyl ester] | ≥ 100000 nM | 501 to 2000 nM |
| CCNC(=O)OCC1CCc2c(sc(NC(=O)/C=C/c3cccnc3)c2C#N)C1 (stereo not shown) [Example 9, Ethyl-carbamic acid 3-cyano-2-((E)-3-pyridin-3-yl-allanoylamino)-4,5,6,7-tetrahydro-benzo[b]thiophen-6-ylmethyl ester] | ≥ 100000 nM | 501 to 2000 nM |
| CCNC(=O)OC[C@H]1CCc2c(sc(NC(=O)/C=C/c3cccnc3)c2C#N)C1 [Example 9a, (S)-Ethyl-carbamic acid 3-cyano-2-((E)-3-pyridin-3-yl-allanoylamino)-4,5,6,7-tetrahydro-benzo[b]thiophen-6-ylmethyl ester] | ≥ 100000 nM | ≤ 501 nM |
| CCNC(=O)OC[C@@H]1CCc2c(sc(NC(=O)/C=C/c3cccnc3)c2C#N)C1 [Example 9b, (R)-Ethyl-carbamic acid 3-cyano-2-((E)-3-pyridin-3-yl-allanoylamino)-4,5,6,7-tetrahydro-benzo[b]thiophen-6-ylmethyl ester] | ≥ 100000 nM | ≤ 501 nM |
| CNC(=O)OCC1CCc2c(sc(NC(=O)/C=C/c3cccnc3)c2C#N)C1 (stereo not shown) [Example 16, Methyl-carbamic acid 3-cyano-2-((E)-3-pyridin-3-yl-allanoylamino)-4,5,6,7-tetrahydro-benzo[b]thiophen-6-ylmethyl ester] | ≥ 100000 nM | ≤ 501 nM |
| CNC(=O)OC[C@H]1CCc2c(sc(NC(=O)/C=C/c3cccnc3)c2C#N)C1 [Example 16a, (S)-Methyl-carbamic acid 3-cyano-2-((E)-3-pyridin-3-yl-allanoylamino)-4,5,6,7-tetrahydro-benzo[b]thiophen-6-ylmethyl ester] | ≥ 100000 nM | ≤ 501 nM |
| CNC(=O)OC[C@@H]1CCc2c(sc(NC(=O)/C=C/c3cccnc3)c2C#N)C1 [Example 16b, Methyl-carbarnic acid (R)-3-cyano-2-((E)-3-pyridin-3-yl-allanoylamino)-4,5,6,7-tetrahydro-benzo[b]thiophen-6-ylmethyl ester] | ≥ 100000 nM | 501 to 2000 nM |
| N#Cc1c(NC(=O)/C=C/c2cccnc2)sc2c1CCC(COC(=O)NCCc1cccnc1)C2 (stereo not shown) [Example 19, (2-Pyridin-3-yl-ethyl)-carbamic acid 3-cyano-2-((E)-3-pyridin-3-yl-allanoylamino)-4,5,6,7-tetrahydro-benzo[b]thiophen-6-ylmethyl ester] | ≥ 100000 nM | 501 to 2000 nM |
| N#Cc1c(NC(=O)/C=C/c2cccnc2)sc2c1CCC(OC(=O)NC1CC1)C2 (stereo not shown) [Example 21, Cyclopropyl-carbamic acid 3-cyano-2-((E)-3-pyridin-3-yl-allanoylamino)-4,5,6,7-tetrahydro-benzo[b]thiophen-6-yl ester] | ≥ 100000 nM | ≤ 501 nM |
